According to patent US10570122B2, “Compounds with anti-tumoral activity” (AB Science, priority 2015, dated 2020):

What was measured:
[1] = system: PLCPRF5; experiment: CellTiter-Blue cell-based survival/proliferation assay, PLCPRF5; details: Homo sapiens, PLC-PRF-5; PLC_PRF5 liver tumor cell line, 48 h
How it was run: (§1)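 Tenfold compound dilutions (0–10 μM) were added to 1·10^4 cells/well. Plates incubated 48 h at 37 °C. CellTiter-Blue reduction (4 h, 37 °C) was read as fluorescence at 590 nm, background-corrected with a cell-free blank.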

[2] = system: SW579; experiment: CellTiter-Blue cell-based survival/proliferation assay, SW579; details: Homo sapiens; SW579 head & neck tumor cell line, 48 h
How it was run: as §1

[3] = system: OPM2; experiment: CellTiter-Blue cell-based survival/proliferation assay, OPM2; details: Homo sapiens, OPM-2, Myeloma cell line OPM2, 48 h, read-out: Anti-tumoral activity (measured IC50) OPM2
How it was run: as §1

[4] = system: DLD1; experiment: CellTiter-Blue cell-based survival/proliferation assay, DLD1; details: Homo sapiens, DLD-1; DLD_1 colorectal tumor cell line, 48 h
How it was run: as §1

[5] = system: HUT78; experiment: CellTiter-Blue cell-based survival/proliferation assay, HUT78; details: Homo sapiens, Lymphoma cell line HUT78, 48 h, read-out: Anti-tumoral activity (measured IC50) HUT78
How it was run: as §1

[6] = system: DU145; experiment: CellTiter-Blue cell-based survival/proliferation assay, DU145; details: Homo sapiens, DU-145; DU145 prostate tumor cell line, 48 h
How it was run: as §1

[7] = system: A498; experiment: CellTiter-Blue cell-based survival/proliferation assay, A498; details: Homo sapiens; A498 kidney tumor cell line, 48 h
How it was run: as §1

[8] = system: ACHN; experiment: CellTiter-Blue cell-based survival/proliferation assay, ACHN; details: Homo sapiens; ACHN kidney tumor cell line, 48 h
How it was run: as §1

[9] = system: CALU6; experiment: CellTiter-Blue cell-based survival/proliferation assay, CALU6; details: Homo sapiens, Calu-6; CALU6 lung tumor cell line, 48 h
How it was run: as §1

[10] = system: MDAMB231; experiment: CellTiter-Blue cell-based survival/proliferation assay, MDAMB231; details: Homo sapiens, MDA-MB-231; MDAMB231 breast tumor cell line, 48 h
How it was run: as §1

[11] = system: BXPC3; experiment: CellTiter-Blue cell-based survival/proliferation assay, BXPC3; details: Homo sapiens, BXPC-3; BXPC3 pancreas tumor cell line, 48 h
How it was run: as §1

[12] = system: H1299; experiment: CellTiter-Blue cell-based survival/proliferation assay, H1299; details: Homo sapiens, NCI-H1299; H1299 lung tumor cell line, 48 h
How it was run: as §1

[13] = system: HEPG2; experiment: CellTiter-Blue cell-based survival/proliferation assay, HEPG2; details: Homo sapiens; HEPG2 liver tumor cell line, 48 h
How it was run: as §1

[14] = system: REC1; experiment: CellTiter-Blue cell-based survival/proliferation assay, REC1; details: Homo sapiens, Lymphoma cell line REC1, 48 h, read-out: Anti-tumoral activity (measured IC50) REC1
How it was run: as §1

[15] = system: A549; experiment: CellTiter-Blue cell-based survival/proliferation assay, A549; details: Homo sapiens; A549 lung tumor cell line, 48 h
How it was run: as §1

[16] = system: HEP2; experiment: CellTiter-Blue cell-based survival/proliferation assay, HEP2; details: Homo sapiens, HEp-2; HEP2 head & neck tumor cell line, 48 h
How it was run: as §1

[17] = system: MESSA; experiment: CellTiter-Blue cell-based survival/proliferation assay, MESSA; details: Homo sapiens, MES-SA; MESSA ovary tumor cell line, 48 h
How it was run: as §1

[18] = system: HL60; experiment: CellTiter-Blue cell-based survival/proliferation assay, HL60; details: Homo sapiens, HL-60, Leukemia cell line HL60, 48 h, read-out: Anti-tumoral activity (measured IC50) HL60
How it was run: as §1

[19] = system: panel of about 34 human tumor cell lines; experiment: Cell-based proliferation screening on panel of tumor cell lines; details: solid tumor cell line, cell line unknown, 48 h, read-out: IC50, solid tumor cell line of column 6 (last section of Table 3)
How it was run: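 CellTiter-Blue survival assay with 1·10^4 cells/well, each line treated 48 h at 37° C with 1/10 serial dilutions from 0 to 10 μM. Resorufin formed during a 4 h reagent incubation is read by fluorescence at 590 nm. A cell-free blank serves as background.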

[20] = system: KARPAS299; experiment: CellTiter-Blue cell-based survival/proliferation assay, KARPAS299; details: Homo sapiens, KARPAS-299, Lymphoma cell line KARPAS299, 48 h, read-out: Anti-tumoral activity (measured IC50) KARPAS299
How it was run: as §1

[21] = system: AGS; experiment: CellTiter-Blue cell-based survival/proliferation assay, AGS; details: Homo sapiens; AGS stomach tumor cell line, 48 h
How it was run: as §1

[22] = system: PANC1; experiment: CellTiter-Blue cell-based survival/proliferation assay, PANC1; details: Homo sapiens, PANC-1; PANC_1 pancreas tumor cell line, 48 h
How it was run: as §1

[23] = system: HGC27; experiment: CellTiter-Blue cell-based survival/proliferation assay, HGC27; details: Homo sapiens, HGC-27; HGC27 stomach tumor cell line, 48 h
How it was run: as §1

[24] = system: CLS354; experiment: CellTiter-Blue cell-based survival/proliferation assay, CLS354; details: Homo sapiens, CLS-354; CLS354_4 head & neck tumor cell line, 48 h
How it was run: as §1

[25] = system: BT20; experiment: CellTiter-Blue cell-based survival/proliferation assay, BT20; details: Homo sapiens, BT-20; BT20 breast tumor cell line, 48 h
How it was run: as §1

[26] = system: TOV112D; experiment: CellTiter-Blue cell-based survival/proliferation assay, TOV112D; details: Homo sapiens; TOV112D ovary tumor cell line, 48 h
How it was run: as §1

[27] = system: PC3; experiment: CellTiter-Blue cell-based survival/proliferation assay, PC3; details: Homo sapiens, PC-3; PC3 prostate tumor cell line, 48 h
How it was run: as §1

[28] = system: HCT116; experiment: CellTiter-Blue cell-based survival/proliferation assay, HCT116; details: Homo sapiens, HCT-116; HCT116 colorectal tumor cell line, 48 h
How it was run: as §1

Compound | IC50 [1] | IC50 [2] | IC50 [3] | IC50 [4] | IC50 [5] | IC50 [6] | IC50 [7] | IC50 [8] | IC50 [9] | IC50 [10] | IC50 [11] | IC50 [12] | IC50 [13] | IC50 [14] | IC50 [15] | IC50 [16] | IC50 [17] | IC50 [18] | IC50 [19] | IC50 [20] | also measured
CCOCc1ccc(C)c(Nc2ncc(-c3ccc(-n4ccnn4)cc3)o2)c1 [Example 035, (5-Ethoxymethyl-2-methyl-phenyl)-[5-(4-[1,2,3]triazol-1-yl-phenyl)-oxazol-2-yl]-amine] | > 1 µM | > 1 µM | > 1 µM | > 1 µM | 0.5 to 1 µM | > 1 µM | > 1 µM | > 1 µM | > 1 µM | > 1 µM | > 1 µM | > 1 µM | > 1 µM | 0.5 to 1 µM | > 1 µM | > 1 µM | > 1 µM | > 1 µM | > 1 µM | 0.5 to 1 µM | IC50 [21]: > 1 µM; IC50 [22]: > 1 µM; IC50 [23]: > 1 µM; IC50 [24]: > 1 µM; IC50 [25]: > 1 µM; IC50 [26]: 0.5 to 1 µM; IC50 [27]: > 1 µM; IC50 [28]: > 1 µM
CCOCc1ccc(C)c(Nc2ncc(-c3ccc(-n4nccn4)cc3)o2)c1 [Example 036, (5-Ethoxymethyl-2-methyl-phenyl)-[5-(4-[1,2,3]triazol-2-yl-phenyl)-oxazol-2-yl]-amine] | > 1 µM | > 1 µM | 0.1 to 0.5 µM | > 1 µM | ≤ 0.1 µM | > 1 µM | > 1 µM | 0.1 to 0.5 µM | 0.5 to 1 µM | > 1 µM | > 1 µM | 0.5 to 1 µM | 0.1 to 0.5 µM | ≤ 0.1 µM | > 1 µM | 0.1 to 0.5 µM | > 1 µM | 0.1 to 0.5 µM | 0.1 to 0.5 µM | ≤ 0.1 µM | IC50 [21]: ≤ 0.1 µM; IC50 [22]: > 1 µM; IC50 [23]: ≤ 0.1 µM; IC50 [24]: ≤ 0.1 µM; IC50 [25]: 0.5 to 1 µM; IC50 [26]: ≤ 0.1 µM; IC50 [27]: 0.1 to 0.5 µM; IC50 [28]: > 1 µM
CCOCc1ccc(C)c(Nc2ncc(-c3ccc(-c4nccs4)cc3)o2)c1 [Example 038, (5-Ethoxymethyl-2-methyl-phenyl)-[5-(4-thiazol-2-yl-phenyl)-oxazol-2-yl]-amine] | > 1 µM | > 1 µM | 0.1 to 0.5 µM | > 1 µM | > 1 µM | > 1 µM | > 1 µM | > 1 µM | > 1 µM | > 1 µM | > 1 µM | > 1 µM | > 1 µM | 0.1 to 0.5 µM | > 1 µM | 0.5 to 1 µM | > 1 µM | 0.1 to 0.5 µM | 0.5 to 1 µM | > 1 µM | IC50 [21]: > 1 µM; IC50 [22]: > 1 µM; IC50 [23]: > 1 µM; IC50 [24]: > 1 µM; IC50 [25]: > 1 µM; IC50 [26]: > 1 µM; IC50 [27]: > 1 µM; IC50 [28]: > 1 µM
CCOCc1ccc(C)c(Nc2ncc(-c3ccc(-n4ccc(C)n4)cc3)o2)c1 [Example 039, (5-Ethoxymethyl-2-methyl-phenyl)-{5-[4-(3-methyl-pyrazol-1-yl)-phenyl]-oxazol-2-yl}-amine] | > 1 µM | > 1 µM | > 1 µM | > 1 µM | 0.5 to 1 µM | > 1 µM | > 1 µM | > 1 µM | > 1 µM | > 1 µM | > 1 µM | > 1 µM | > 1 µM | 0.5 to 1 µM | > 1 µM | > 1 µM | > 1 µM | 0.5 to 1 µM | > 1 µM | 0.5 to 1 µM | IC50 [21]: > 1 µM; IC50 [22]: > 1 µM; IC50 [23]: > 1 µM; IC50 [24]: > 1 µM; IC50 [25]: > 1 µM; IC50 [26]: > 1 µM; IC50 [27]: > 1 µM; IC50 [28]: > 1 µM
CCOCc1ccc(C)c(Nc2ncc(-c3ccc(-n4cc(C)cn4)cc3)o2)c1 [Example 040, (5-Ethoxymethyl-2-methyl-phenyl)-{5-[4-(4-methyl-pyrazol-1-yl)-phenyl]-oxazol-2-yl}-amine] | > 1 µM | > 1 µM | > 1 µM | > 1 µM | > 1 µM | > 1 µM | > 1 µM | > 1 µM | > 1 µM | > 1 µM | > 1 µM | > 1 µM | > 1 µM | > 1 µM | > 1 µM | > 1 µM | > 1 µM | > 1 µM | > 1 µM | > 1 µM | IC50 [21]: > 1 µM; IC50 [22]: > 1 µM; IC50 [23]: > 1 µM; IC50 [24]: > 1 µM; IC50 [25]: > 1 µM; IC50 [26]: > 1 µM; IC50 [27]: > 1 µM; IC50 [28]: > 1 µM
CCOCc1ccc(C)c(Nc2ncc(-c3ccc(N4CCN(C)C4=O)cc3)o2)c1 [Example 044, 1-{4-[2-(5-Ethoxymethyl-(2-methyl-phenylamino))-oxazol-5-yl]-phenyl}-3-methyl-imidazolidin-2-one] | > 1 µM | > 1 µM | 0.5 to 1 µM | > 1 µM | 0.5 to 1 µM | > 1 µM | > 1 µM | > 1 µM | > 1 µM | > 1 µM | > 1 µM | > 1 µM | > 1 µM | 0.1 to 0.5 µM | > 1 µM | > 1 µM | > 1 µM | 0.1 to 0.5 µM | 0.1 to 0.5 µM | 0.1 to 0.5 µM | IC50 [21]: > 1 µM; IC50 [22]: > 1 µM; IC50 [23]: > 1 µM; IC50 [24]: 0.5 to 1 µM; IC50 [25]: > 1 µM; IC50 [26]: > 1 µM; IC50 [27]: 0.5 to 1 µM; IC50 [28]: > 1 µM
CCOCc1ccc(C)c(Nc2ncc(-c3ccc(N4CCN(CCN)C4=O)cc3)o2)c1 [Example 045, 1-(2-Amino-ethyl)-3-{4-[2-(5-ethoxymethyl-(2-methyl-phenylamino))-oxazol-5-yl]-phenyl}-imidazolidin-2-one] | > 1 µM | > 1 µM | > 1 µM | > 1 µM | > 1 µM | > 1 µM | > 1 µM | > 1 µM | > 1 µM | > 1 µM | > 1 µM | > 1 µM | > 1 µM | > 1 µM | > 1 µM | > 1 µM | > 1 µM | > 1 µM | > 1 µM | > 1 µM | IC50 [21]: > 1 µM; IC50 [22]: > 1 µM; IC50 [23]: > 1 µM; IC50 [24]: > 1 µM; IC50 [25]: > 1 µM; IC50 [26]: > 1 µM; IC50 [27]: > 1 µM; IC50 [28]: > 1 µM
